Source: ChEMBL document CHEMBL1909046, “DrugMatrix in vitro pharmacology data”

Key:
[1] = DRUGMATRIX: Leukotriene, BLT (LTB4) radioligand binding (ligand: [3H]LTB4); assay type: cell membranes, Membrane; settings: u-937; Not Active = under 50% inhibition at 10 µM
[2] = DRUGMATRIX: Tumor Necrosis Factor (TNF), Non-Selective radioligand binding (ligand: [125I] TNF-alpha); assay type: cell membranes, Membrane; settings: u-937; Not Active = under 50% inhibition at 10 µM
[3] = biological target: T1, Alpha-1A adrenergic receptor (Rattus norvegicus, UniProt P43140); experiment: DRUGMATRIX: Alpha-1A adrenergic receptor radioligand binding (ligand: prazosin); assay type: cell membranes, Wistar, Submaxillary gland, Membrane; settings: Not Active = under 50% inhibition at 10 µM
T1 sequence (P43140 whole entry): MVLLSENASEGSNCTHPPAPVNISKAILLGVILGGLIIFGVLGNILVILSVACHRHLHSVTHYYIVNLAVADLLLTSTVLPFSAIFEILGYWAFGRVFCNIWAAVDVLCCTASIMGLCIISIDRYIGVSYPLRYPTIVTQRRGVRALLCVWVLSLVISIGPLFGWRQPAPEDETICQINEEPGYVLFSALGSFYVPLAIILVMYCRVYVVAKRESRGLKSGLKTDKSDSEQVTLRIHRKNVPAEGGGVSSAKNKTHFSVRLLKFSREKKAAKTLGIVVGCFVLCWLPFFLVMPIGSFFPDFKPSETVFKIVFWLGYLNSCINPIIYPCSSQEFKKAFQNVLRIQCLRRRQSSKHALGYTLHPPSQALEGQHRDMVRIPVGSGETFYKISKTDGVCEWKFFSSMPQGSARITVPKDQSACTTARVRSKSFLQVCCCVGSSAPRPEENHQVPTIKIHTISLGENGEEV

[4] = DRUGMATRIX: Glutamate, NMDA, Phencyclidine radioligand binding (ligand: [3H] TCP); assay type: cell membranes, Rattus norvegicus, Wistar, Cerebral cortex, Membrane; settings: Not Active = under 50% inhibition at 10 µM
[5] = DRUGMATRIX: Phosphodiesterase PDE4 enzyme inhibition (substrate: [3H]cAMP + cAMP); settings: u-937; Not Active = under 50% inhibition at 10 µM
[6] = biological target: Aldo-keto reductase family 1 member B1 (Rattus norvegicus, UniProt P07943); experiment: biochemical; assay type: tissue-based, Lens of camera-type eye;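 note: inhibition of aldose reductase enzyme activity, measured with DL-glyceraldehyde as the substrate; in other assays of this panel Not Active means under 50% inhibition at 10 µM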
[7] = biological target: Matrix metalloproteinase-9 (Homo sapiens, UniProt P14780); assay type: cell-based;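 note: inhibition of isolated MMP-9 enzyme activity toward a synthetic peptide substrate, from the DrugMatrix protease screening panel; in other assays of this panel Not Active means under 50% inhibition at 10 µM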
Chain of Matrix metalloproteinase-9 (P14780 whole entry): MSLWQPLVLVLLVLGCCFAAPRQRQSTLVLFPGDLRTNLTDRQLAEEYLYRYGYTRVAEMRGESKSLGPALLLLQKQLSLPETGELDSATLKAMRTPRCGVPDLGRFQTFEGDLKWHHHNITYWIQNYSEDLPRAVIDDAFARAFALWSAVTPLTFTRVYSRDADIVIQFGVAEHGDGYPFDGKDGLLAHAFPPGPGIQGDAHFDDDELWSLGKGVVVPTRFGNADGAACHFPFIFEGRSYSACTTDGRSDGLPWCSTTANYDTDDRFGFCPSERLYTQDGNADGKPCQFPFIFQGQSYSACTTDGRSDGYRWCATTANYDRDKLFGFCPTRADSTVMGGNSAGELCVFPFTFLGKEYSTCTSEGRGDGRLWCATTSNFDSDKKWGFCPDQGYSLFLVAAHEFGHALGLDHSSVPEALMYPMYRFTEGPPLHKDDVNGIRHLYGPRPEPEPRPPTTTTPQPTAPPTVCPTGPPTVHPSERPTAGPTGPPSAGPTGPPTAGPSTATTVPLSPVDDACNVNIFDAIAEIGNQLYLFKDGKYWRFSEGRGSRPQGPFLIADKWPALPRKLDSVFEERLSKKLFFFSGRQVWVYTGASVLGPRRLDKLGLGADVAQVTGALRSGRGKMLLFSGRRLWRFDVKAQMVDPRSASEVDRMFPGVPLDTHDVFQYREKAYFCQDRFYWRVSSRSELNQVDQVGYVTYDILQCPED

C1CCN2C[C@@H]3C[C@@H](CN4CCCC[C@@H]34)[C@H]2C1 [SPARTEINE]
Not Active: IC50 [1] | Ki [1] | IC50 [2] | Ki [2] | IC50 [3] | IC50 [4] | Ki [4] | IC50 [5] | Ki [5] | IC50 [6] | IC50 [7]
